Test results from US10189880B2, “T cell receptors directed against Bob1 and uses thereof” (LEIDEN UNIVERSITY MEDICAL CENTER, priority 2014, dated 2019).
“And” between values parts separate entries of the source, which are not always exact repeats. Equal entries are not always repeated. “Also recorded” adds a separate entry of the source. Where two headings read alike, the source gives them in different places.

Legend:
[1] = cited from earlier work
[2] = AP1903 in vitro effective signaling of cells; format: cell-based
Method: The fixed dose of AP1903 for injection used, for example, may be 0.4 mg/kg intravenously infused over 2 hours. The amount of AP1903 needed in vitro for effective signaling of cells is about 10-100 nM (MW: 1412 Da). This equates to 14-140 μg/L or ˜0.014-0.14 mg/kg ([…]). The dosage may vary according to the application, and may, in certain examples, be more in the range of 0.1-10 nM, or in the range of 50-150 nM, 10-200 nM, 75-125 nM, 100-500 nM, 100-600 nM, 100-700 nM, 100-800 nM, or 100-900 nM. Doses up to 1 mg/kg were well-tolerated in the Phase I study of AP1903 described above.

CD3+ΔCD19+ cells = experiment: Phase 1 clinical trial of iCasp9 T cells after haploidentical stem cell transplantation; format: in vivo, human
Description: This example presents results of a phase 1 clinical trial using an alternative suicide gene strategy. Briefly, donor peripheral blood mononuclear cells were co-cultured with recipient irradiated EBV-transformed lymphoblastoid cells (40:1) for 72 hrs, allodepleted with a CD25 immunotoxin and then transduced with a retroviral supernatant carrying the iCasp9 suicide gene and a selection marker (ΔCD19); ΔCD19 allowed enrichment to >90% purity via immunomagnetic selection.
Patients developing Grade I GvHD were treated with 0.4 mg/kg AP1903 as a 2-hour infusion. Protocols for administration of AP1903 to patients developing Grade I GvHD were established as follows. Patients developing GvHD after infusion of allodepleted T cells are biopsied to confirm the diagnosis and receive 0.4 mg/kg of AP1903 as a 2 h infusion. […] Patients developing grades 2-4 GvHD were administered standard systemic immunosuppressive therapy per institutional guidelines, in addition to the AP1903 dimerizer drug.
Three patients received iCasp9+ T cells after haplo-CD34+ stem cell transplantation (SCT), at dose levels between about 1×10^6 to about 3×10^6 cells/kg.

Question: For CC[C@H](C(=O)N1CCCC[C@H]1C(=O)O[C@H](CCc1ccc(OC)c(OC)c1)c1cccc(OCC(=O)NCCNC(=O)COc2cccc([C@@H](CCc3ccc(OC)c(OC)c3)OC(=O)[C@@H]3CCCCN3C(=O)[C@@H](CC)c3cc(OC)c(OC)c(OC)c3)c2)c1)c1cc(OC)c(OC)c(OC)c1 (relative stereo) [AP1903, 2-Piperidinecarboxylic acid, 1-[(2S)-1-oxo-2-(3,4,5-trimethoxyphenyl)butyl]-, 1,2-ethanediylbis[imino(2-oxo-2,1-ethanediyl)oxy-3,1-phenylene[(1R)-3-(3,4-dimethoxyphenyl)propylidene]]ester, [2S-[1(R*),2R*[S[S*[1(R*),2R*]]]]]-(9Cl)], which “duration of the adverse event” value ([1]; 1.0 mg/kg) is on record?
Answer: 32 min

Question: And the “onset of the adverse event after start of infusion” value ([1]; 1.0 mg/kg)?
Answer: 3 min

Question: What about the “relation of plasma levels to dose” value ([1]; 0.01-1.0 mg/kg) of the same compound?
Answer: directly proportional to dose

Question: What about the “adverse event considered possibly related to AP1903” value ([1]; 1 volunteer at the 1.0 mg/kg dosage) of the same compound?
Answer: vasodilatation

Question: What about the “plasma level as % of maximal concentration” value ([1]; 2 hours post-dose) of the same compound?
Answer: ~7%

Question: And the “plasma level as % of maximal concentration” value ([1]; 10 hours post-dose)?
Answer: ~1%

Question: What about the serious adverse events ([1]; Phase 1 study in volunteers) of the same compound?
Answer: No serious adverse events

Question: And the safety and tolerability ([1]; all dose levels, 0.01 to 1.0 mg/kg)?
Answer: well-tolerated; also recorded: No significant adverse effects

Question: What about the “incidence of adverse events” value ([1]; following each treatment) of the same compound?
Answer: very low

Question: And the “severity of adverse events” value ([1]; human, in vivo)?
Answer: mild

Question: What about the “mean Cmax / plasma concentrations” value ([1]; single IV infusion over 2 hours, 0.01-1.0 mg/kg dose range) of the same compound?
Answer: 10 to 1275 ng/mL and 10 ng/mL

Question: And the “amount needed in vitro for effective signaling of cells” value [2]?
Answer: 10 to 100 nM

Question: And the “amount needed for effective signaling, converted” value ([2]; MW: 1412 Da)?
Answer: 14 to 140 µg/L

Question: And the “time to resolution of skin and liver aGvHD” value (CD3+ΔCD19+ cells; after AP1903 administration)?
Answer: ≤ 24 h

Question: And the “ablation of CD3+ΔCD19+ cells” value (CD3+ΔCD19+ cells; within 30 minutes of infusion, patients with grade I/II aGvHD, 0.4 mg/kg)?
Answer: > 90%

Question: And the “further reduction of CD3+ΔCD19+ cells” value (CD3+ΔCD19+ cells; within 24 hours)?
Answer: further log reduction
